Reference: patent US6184365A, “Anthracycline derivatives having 4-amino-2,4,6-trideoxy-2 fluoro-α-L-talopyranosyl group” (priority 1996, dated 2001)
≈ marks a conversion by molar mass, not a printed value. Read-outs that look alike come from different tables or passages of the source.

What was measured:
Leukemia L-1210 cells = assay: Antitumor activity against leukemia in CDF1 mice inoculated with Leukemia L-1210 cells; type: in vivo, mouse; conditions: for Increase (%) in life-span (T/C, %): i.p., once a day for 9 days, as hydrochloride
Procedure: Thus, to evaluate the antitumor effects of the novel compounds of this invention against experimental tumors in animals, CDF1 mice (four mice per group) were intraperitoneally inoculated with cells of Leukemia L-1210 at an amount of 1×10^5 cells/mouse. Since an elapse of 24 hours from the inoculation of the leukemia cells, a test compound of this invention was administered intraperitoneally to the mice under test once a day for consecutive 9 days, with the test compound being given as its hydrochloride in the form of a solution in a physiological saline. […] In the meanwhile, mice of the control group (the untreated group) were administered only with physiological saline after the inoculation of the L-1210 cells. During the observation period, the number of the surviving mice was counted for both the treated group and the control group, and the mean survival days of mice of both the treated group and the control group were calculated. Then, the percentages (%) of the increase in the life-span of the treated mice was estimated, as T/C (%), in terms of the mean survival day (C) of the untreated mice of the control group and the mean survival day (T) of the treated mice of the treated group. For comparison purposes, similar tests were effected using daunomycin (as hydrochloride) and adriamycin (as hydrochloride). The mean survival day of mice of the control group (the untreated group) was 8 to 9 days, and the mean survival day of mice of the comparative groups having received the administration of daunomycin or adriamycin usually varied dependently on the dosage of the compound tested.
Incidentally, in respect of the fractional numbers parenthesized below the numerical values of increase (%) in the life-span, the denominator of the fraction denotes the number of mice tested in one test group but the numerator of the fraction denotes the number of mice which survived for 60 days or longer.

[1] = system: human chronic myelogenous leukemia (K562); assay: Growth inhibition of human chronic myelogenous leukemia (K562); type: cell-based; conditions: Homo sapiens
Procedure: (§1) Adriamycin was used as a comparative compound and was tested in the same manner as above.
(§2) The different kinds of human cancer cells tested were six kinds indicated below, including human chronic myelogenous leukemia (K562), human vaginal melanoma (HMV-1), human nasopharyngeal carcinoma (KB), human gastric adenocarcinoma (MKN-1), human lung non-small cell carcinoma (PC-14) and human bladder carcinoma (T24).

[2] = system: human vaginal melanoma (HMV-1); assay: Growth inhibition of human vaginal melanoma (HMV-1); type: cell-based
Procedure: as §1, §2

[3] = system: human nasopharyngeal carcinoma (KB); assay: Growth inhibition of human nasopharyngeal carcinoma (KB); type: cell-based
Procedure: as §1, §2

[4] = system: human gastric adenocarcinoma (MKN-1); assay: Growth inhibition of human gastric adenocarcinoma (MKN-1); type: cell-based; conditions: Homo sapiens
Procedure: as §1, §2

[5] = system: human lung non-small cell carcinoma (PC-14); assay: Growth inhibition of human lung non-small cell carcinoma (PC-14); type: cell-based; conditions: Homo sapiens
Procedure: as §1, §2

[6] = system: human bladder carcinoma (T24); assay: Growth inhibition of human bladder carcinoma (T24); type: cell-based; conditions: Homo sapiens
Procedure: as §1, §2

[7] = system: mouse leukemia P388 cells; assay: Growth inhibition of mouse leukemia P388 cells; type: cell-based
Procedure: as §1

[8] = system: adriamycin-resistant P388 cells (P388/ADR); assay: Growth inhibition of adriamycin-resistant P388 cells (P388/ADR); type: cell-based, mouse; conditions: for IC50: Mus musculus
Procedure: as §1

Solubility in water = type: physicochemical
[9] = system: various human cancer cells; assay: in vitro tests against various human cancer cells; type: cell-based
Procedure: as §1, §2

[10] = cited from earlier work
[11] = earlier derivatives; cited from earlier work
[12] = earlier derivatives; comparison with daunomycin or adriamycin; cited from earlier work

In the case of `COc1cccc2c1C(=O)c1c(O)c3c(c(O)c1C2=O)C[C@@](O)(C(C)=O)C[C@@H]3O[C@@H]1O[C@@H](C)[C@@H](N)[C@@H](O)[C@H]1F` [Compound (a), 7-O-(4-amino-2,4,6-trideoxy-2-fluoro-α-L-talopyranosyl)daunomycinone], the “Increase (%) in life-span (T/C, %)” value (Leukemia L-1210 cells; 0.15 mg/kg/day) is reported as 127%, the “Increase (%) in life-span (T/C, %)” value (Leukemia L-1210 cells; 0.3 mg/kg/day) is reported as 152% and the “Increase (%) in life-span (T/C, %)” value (Leukemia L-1210 cells; 0.6 mg/kg/day) is reported as 182%. For the same molecule, the “number of mice which survived for 60 days or longer / number tested” value (Leukemia L-1210 cells; 1.25 mg/kg/day) was 2/4, the “Increase (%) in life-span (T/C, %)” value (Leukemia L-1210 cells; 1.25 mg/kg/day) was over 463% and the “Increase (%) in life-span (T/C, %)” value (Leukemia L-1210 cells; 2.5 mg/kg/day) was 235%. The “Increase (%) in life-span (T/C, %)” value (Leukemia L-1210 cells; 5 mg/kg/day) was 175%, the “antitumor activity compared with daunomycin” value (Leukemia L-1210 cells; 0.6~1.25 mg/kg) was “antitumor activities higher than those of daunomycin” and the “antitumor activity against mouse Leukemia L-1210 cell compared with adriamycin” value (Leukemia L-1210 cells; low dosages) was “substantially equal to or higher than that of adriamycin”. The IC50 ([1]; K562, 72 hours, read-out: IC50) was 0.087 µg/mL (≈ 0.159 µM), the IC50 ([2]; HMV-1, 72 hours, read-out: IC50) was 0.071 µg/mL (≈ 0.13 µM) and the IC50 ([3]; KB, 72 hours, read-out: IC50) was 0.028 µg/mL (≈ 0.0513 µM). The IC50 ([4]; MKN-1, 72 hours, read-out: IC50) was 0.12 µg/mL (≈ 0.22 µM), the IC50 ([5]; PC-14, 72 hours, read-out: IC50) was 0.17 µg/mL (≈ 0.312 µM) and the IC50 ([6]; T24, 72 hours, read-out: IC50) was 0.047 µg/mL (≈ 0.0862 µM). For the same molecule, the IC50 ([7]; P388, 72 hours, read-out: IC50) was under 0.0098 µg/mL, the “anticancer activity, folds higher than that of adriamycin” value [8] was 29.1 folds and the IC50 ([8]; 72 hours, read-out: IC50) was 0.086 µg/mL (≈ 0.158 µM). For the same molecule, the solubility (Solubility in water) was 10000 µg/mL (≈ 18300 µM), the “antitumor or anticancer activity compared with adriamycin” value ([9]; human cancer cells as well as mouse leukemia P388 and P388/ADR cells) was “higher antitumor or anticancer activities than those of adriamycin” and the “anticancer activities against various human cancer cells compared with adriamycin” value ([9]; in vitro) was “remarkably improved anticancer activities”.

For `COc1cccc2c1C(=O)c1c(O)c3c(c(O)c1C2=O)C[C@@](O)(C(=O)CO)C[C@@H]3O[C@H]1C[C@H](N)[C@H](O)[C@H](C)O1` [Adriamycin, reference compound], the “Increase (%) in life-span (T/C, %)” value (Leukemia L-1210 cells; 0.15 mg/kg/day) was 140%, the “Increase (%) in life-span (T/C, %)” value (Leukemia L-1210 cells; 0.3 mg/kg/day) was 132% and the “Increase (%) in life-span (T/C, %)” value (Leukemia L-1210 cells; 0.6 mg/kg/day) was 208%. For the same molecule, the “Increase (%) in life-span (T/C, %)” value (Leukemia L-1210 cells; 1.25 mg/kg/day) was 330%, the “Increase (%) in life-span (T/C, %)” value (Leukemia L-1210 cells; 2.5 mg/kg/day) was 273% and the “Increase (%) in life-span (T/C, %)” value (Leukemia L-1210 cells; 5 mg/kg/day) was 177%. For the same molecule, the “development of toxicity in words” value (Leukemia L-1210 cells; 2.5 to 5 mg/kg/day) was “accompanied by the development of toxicity”, the “percentages of increase in the life-span (T/C, %)” value (Leukemia L-1210 cells; 2.5 to 5 mg/kg/day) was “about 330%” and the IC50 ([1]; K562, 72 h) was 0.39 µg/mL (≈ 0.718 µM). It also gave an IC50 ([2]; 72 h) of 0.14 µg/mL (≈ 0.258 µM), an IC50 ([3]; 72 h) of 0.05 µg/mL (≈ 0.092 µM) and an IC50 ([4]; MKN-1, 72 h) of 0.25 µg/mL (≈ 0.46 µM). The IC50 ([5]; PC-14, 72 h) was 0.62 µg/mL (≈ 1.14 µM), the IC50 ([6]; 72 h) was 0.16 µg/mL (≈ 0.294 µM) and the IC50 ([7]; P388, 72 h) was 0.032 µg/mL (≈ 0.0589 µM). The IC50 ([8]; 72 h) was 2.5 µg/mL (≈ 4.6 µM) and the side-effects ([10]; clinical treatment of cancer-bearing patients) was “serious side-effects such as leukocytopenia, alopecia, myocardiopathy and others”.

In the case of `COc1cccc2c1C(=O)c1c(O)c3c(c(O)c1C2=O)C[C@@](O)(C(C)=O)C[C@@H]3O[C@H]1C[C@H](N)[C@H](O)[C@H](C)O1` [Daunomycin, reference compound], the “Increase (%) in life-span (T/C, %)” value (Leukemia L-1210 cells; 0.15 mg/kg/day) is reported as 132%, the “Increase (%) in life-span (T/C, %)” value (Leukemia L-1210 cells; 0.3 mg/kg/day) is reported as 112% and the “Increase (%) in life-span (T/C, %)” value (Leukemia L-1210 cells; 0.6 mg/kg/day) is reported as 145%. The “Increase (%) in life-span (T/C, %)” value (Leukemia L-1210 cells; 1.25 mg/kg/day) was 158%, the “Increase (%) in life-span (T/C, %)” value (Leukemia L-1210 cells; 2.5 mg/kg/day) was 171% and the “Increase (%) in life-span (T/C, %)” value (Leukemia L-1210 cells; 5 mg/kg/day) was 138%. For the same molecule, the “development of toxicity in words” value (Leukemia L-1210 cells; 2.5 to 5 mg/kg/day) was “accompanied by the development of toxicity” and the side-effects ([10]; human, in vivo) was “serious side-effects such as leukocytopenia, alopecia, myocardiopathy and others”.

For `COc1cccc2c1C(=O)c1c(O)c3c(c(O)c1C2=O)C[C@@](O)(C(=O)CO)C[C@@H]3O[C@@H]1O[C@@H](C)[C@@H](O)[C@@H](N)[C@H]1F` [7-O-(3-amino-2,3,6-trideoxy-2-fluoro-α-L-talopyranosyl)adriamycinone], the “solubility in water” value [11] is given as “soluble in water” and the “antitumor activity” value [12] is given as “antitumor activity a little higher than that of the latter”.
